Values of other authors in patent US7772207B2, “Combination of a CDK inhibitor and CS-682 or a metabolite thereof” (Cyclacel Limited, priority 2003, dated 2010).

Legend:
[1] = phase I, patients with a variety of cancers

CCCCCCCCCCCCCCCC(=O)Nc1ccn([C@@H]2O[C@H](CO)[C@@H](O)[C@@H]2C#N)c(=O)n1 [(I), 1-(2-C-cyano-2-dioxy-β-D-arabino-pentofuranosyl)-N^4-palmitoyl cytosine]
dose limiting toxicity [1]: myelosuppression | tolerability [1]: well tolerated | anticancer activity (colon cancer; model of colon cancer): strong anticancer activity | increasing survival and preventing the spread of colon cancer metastases to the liver, compared with gemcitabine or 5-FU (colon cancer; same model of colon cancer): superior to either gemcitabine or 5-FU
